In ChEMBL document CHEMBL4373744, “Modifying the lipophilic part of phenylthiazole antibiotics to control their drug-likeness” (Eur J Med Chem, 2020):
Values after ≈ are worked out from the molar mass of the structure shown.

Legend:
Escherichia coli [1] = assay: Antimicrobial activity against Escherichia coli BW25113 by broth liquid microdilution method; type: functional
Escherichia coli [2] = assay: Antimicrobial activity against Escherichia coli JW55031 harboring deltatolC mutant by broth liquid microdilution method; type: functional
Staphylococcus aureus = assay: microbe, parasite or virus in culture; details: NRS384
Description: Antimicrobial activity against methicillin-resistant Staphylococcus aureus NRS384 by broth liquid microdilution method

SMILES	MIC (Escherichia coli [1]) [µg/mL]	MIC (Escherichia coli [2]) [µg/mL]	MIC (Staphylococcus aureus) [µg/mL]
C/C(=N\NC(=N)N)c1sc(-c2ccc(OCCCCCn3ccnc3)cc2)nc1C	> 64	> 64	> 64
C/C(=N\NC(=N)N)c1sc(-c2ccc(C#CCCN3CCOCC3)cc2)nc1C	> 64	64 (≈ 156 µM)	32 (≈ 77.9 µM)
C/C(=N\NC(=N)N)c1sc(-c2ccc(OCCCCN3CCC(C)CC3)cc2)nc1C	> 64	32 (≈ 72.3 µM)	32 (≈ 72.3 µM)
C/C(=N\NC(=N)N)c1sc(-c2ccc(OCCCCN3CCCCC3C)cc2)nc1C (configuration not stated)	> 64	> 64	> 64
C/C(=N\NC(=N)N)c1sc(-c2ccc(OCCCCN3CCCC(C)C3)cc2)nc1C (configuration not stated)	> 64	> 64	> 64
C/C(=N\NC(=N)N)c1sc(-c2ccc(OCCCCCN3CCC(C)CC3)cc2)nc1C	> 64	64 (≈ 140 µM)	32 (≈ 70.1 µM)
C/C(=N\NC(=N)N)c1sc(-c2ccc(C#CCCN3CCSCC3)cc2)nc1C	> 64	16 (≈ 37.5 µM)	32 (≈ 75 µM)
C/C(=N\NC(=N)N)c1sc(-c2ccc(OCCCN3CCN(C)CC3)cc2)nc1C	> 64	> 64	> 64
C/C(=N\NC(=N)N)c1sc(-c2ccc(OCCCCCN3CCCC3)cc2)nc1C	> 64	> 64	> 64
C/C(=N\NC(=N)N)c1sc(-c2ccc(OCCCCCN3CCC3)cc2)nc1C	> 64	64 (≈ 154 µM)	32 (≈ 77.2 µM)
C/C(=N\NC(=N)N)c1sc(-c2ccc(OCCCN3CCSC3)cc2)nc1C	> 64	32 (≈ 76.4 µM)	16 (≈ 38.2 µM)
C/C(=N\NC(=N)N)c1sc(-c2ccc(OCCCCN3CCC4CCCCC4C3)cc2)nc1C (configuration not stated)	> 64	> 64	> 64
C/C(=N\NC(=N)N)c1sc(-c2ccc(C#CCCN3CCCC3)cc2)nc1C	> 64	> 64	16 (≈ 40.6 µM)
C/C(=N\NC(=N)N)c1sc(-c2ccc(OCCCCCN3CCSCC3)cc2)nc1C	> 64	> 64	> 64
C/C(=N\NC(=N)N)c1sc(-c2ccc(OCCCCN3CCN(C)CC3)cc2)nc1C	> 64	32 (≈ 72.1 µM)	16 (≈ 36.1 µM)
C/C(=N\NC(=N)N)c1sc(-c2ccc(OCCCN3CCC(C)CC3)cc2)nc1C	> 64	> 64	> 64
C/C(=N\NC(=N)N)c1sc(-c2ccc(OCCCN3CCOCC3)cc2)nc1C	> 64	> 64	64 (≈ 154 µM)
C/C(=N\NC(=N)N)c1sc(-c2ccc(C#CCCN3CCCCCC3)cc2)nc1C	> 64	64 (≈ 151 µM)	8 (≈ 18.9 µM)
C/C(=N\NC(=N)N)c1sc(-c2ccc(C#CCCN3CCC4CCCCC4C3)cc2)nc1C (configuration not stated)	> 64	> 64	> 64
C/C(=N\NC(=N)N)c1sc(-c2ccc(OCCCCCN3CCCC(C)C3)cc2)nc1C (configuration not stated)	> 64	64 (≈ 140 µM)	32 (≈ 70.1 µM)
C/C(=N\NC(=N)N)c1sc(-c2ccc(C#CCCN3CCCC(C)C3)cc2)nc1C (configuration not stated)	> 64	64 (≈ 151 µM)	8 (≈ 18.9 µM)
C/C(=N\NC(=N)N)c1sc(-c2ccc(OCCCCN3CCSC3)cc2)nc1C	> 64	> 64	> 64
C/C(=N\NC(=N)N)c1sc(-c2ccc(OCCCCCN3CCCCC3)cc2)nc1C	> 64	16 (≈ 36.1 µM)	16 (≈ 36.1 µM)
C/C(=N\NC(=N)N)c1sc(-c2ccc(OCCCCCN3CCOCC3)cc2)nc1C	> 64	32 (≈ 72 µM)	32 (≈ 72 µM)
C/C(=N\NC(=N)N)c1sc(-c2ccc(OCCCCN3CCCCC3)cc2)nc1C	> 64	> 64	> 64

SMILES	MIC (Escherichia coli [1]) [µg/mL]	MIC (Escherichia coli [2]) [µg/mL]	MIC (Staphylococcus aureus) [µg/mL]
C/C(=N\NC(=N)N)c1sc(-c2ccc(OCCCCCN3CCN(C)CC3)cc2)nc1C	> 64	> 64	> 64
C/C(=N\NC(=N)N)c1sc(-c2ccc(OCCCn3ccnc3)cc2)nc1C	> 64	> 64	32 (≈ 80.5 µM)
C/C(=N\NC(=N)N)c1sc(-c2ccc(OCCCCn3ccnc3)cc2)nc1C	> 64	32 (≈ 77.8 µM)	16 (≈ 38.9 µM)
C/C(=N\NC(=N)N)c1sc(-c2ccc(OCCCCN3CCC3)cc2)nc1C	> 64	16 (≈ 39.9 µM)	8 (≈ 20 µM)
C/C(=N\NC(=N)N)c1sc(-c2ccc(OCCCCN3CCCCCC3)cc2)nc1C	> 64	> 64	> 64
C/C(=N\NC(=N)N)c1sc(-c2ccc(OCCCN3CCCCC3C)cc2)nc1C (configuration not stated)	> 64	> 64	64 (≈ 149 µM)
C/C(=N\NC(=N)N)c1sc(-c2ccc(OCCCN3CCCCCC3)cc2)nc1C	> 64	> 64	64 (≈ 149 µM)
C/C(=N\NC(=N)N)c1sc(-c2ccc(OCCCN3CCSCC3)cc2)nc1C	> 64	64 (≈ 148 µM)	32 (≈ 74 µM)
C/C(=N\NC(=N)N)c1sc(-c2ccc(OCCCCN3CCSCC3)cc2)nc1C	> 64	> 64	> 64
C/C(=N\NC(=N)N)c1sc(-c2ccc(C#CCCN3CCCCC3)cc2)nc1C	> 64	32 (≈ 78.3 µM)	8 (≈ 19.6 µM)
C/C(=N\NC(=N)N)c1sc(-c2ccc(OCCCCCN3CCSC3)cc2)nc1C	> 64	> 64	> 64
C/C(=N\NC(=N)N)c1sc(-c2ccc(OCCCN3CCC3)cc2)nc1C	> 64	64 (≈ 166 µM)	8 (≈ 20.7 µM)
C/C(=N\NC(=N)N)c1sc(-c2ccc(OCCCCCN3CCCCC3C)cc2)nc1C (configuration not stated)	> 64	32 (≈ 70.1 µM)	32 (≈ 70.1 µM)
C/C(=N\NC(=N)N)c1sc(-c2ccc(C#CCCN3CCCCC3C)cc2)nc1C (configuration not stated)	> 64	32 (≈ 75.7 µM)	16 (≈ 37.9 µM)
C/C(=N\NC(=N)N)c1sc(-c2ccc(C#CCCN3CCN(C)CC3)cc2)nc1C	> 64	32 (≈ 75.5 µM)	16 (≈ 37.8 µM)
C/C(=N\NC(=N)N)c1sc(-c2ccc(OCCCCN3CCCC3)cc2)nc1C	> 64	> 64	> 64
C/C(=N\NC(=N)N)c1sc(-c2ccc(OCCCN3CCCC(C)C3)cc2)nc1C (configuration not stated)	> 64	> 64	64 (≈ 149 µM)
C/C(=N\NC(=N)N)c1sc(-c2ccc(OCCCCCN3CCC4CCCCC4C3)cc2)nc1C (configuration not stated)	> 64	> 64	> 64
C/C(=N\NC(=N)N)c1sc(-c2ccc(OCCCN3CCCCC3)cc2)nc1C	> 64	64 (≈ 154 µM)	32 (≈ 77.2 µM)
C/C(=N\NC(=N)N)c1sc(-c2ccc(OCCCN3CCC4CCCCC4C3)cc2)nc1C (configuration not stated)	> 64	> 64	64 (≈ 137 µM)
C/C(=N\NC(=N)N)c1sc(-c2ccc(C#CCCN3CCC(C)CC3)cc2)nc1C	> 64	> 64	16 (≈ 37.9 µM)
C/C(=N\NC(=N)N)c1sc(-c2ccc(OCCCN3CCCC3)cc2)nc1C	> 64	32 (≈ 79.9 µM)	16 (≈ 39.9 µM)
C/C(=N\NC(=N)N)c1sc(-c2ccc(OCCCCN3CCOCC3)cc2)nc1C	> 64	> 64	> 64
C/C(=N\NC(=N)N)c1sc(-c2ccc(OCCCCCN3CCCCCC3)cc2)nc1C	> 64	> 64	> 64
